Each structure is given as a SMILES string. Like-named read-outs stand apart in the source and are kept apart here.

For 10 molecules, change in vivo results are on record in patent publication US12509431B2, “1,4-dihydroquinazolinone compounds and uses thereof” (Edgewise Therapeutics, Inc., priority 2022, dated 2025).

The assay concerns isoflurane-anesthetized SD rats. The assay can be described thus: In vivo echocardiography of systolic cardiac performance (FS, SWT, HR, LV volumes) after a single oral dose. The following applies: Rattus norvegicus, single dose 10 mg/kg PO, ~2 hrs post-dosing, vs. vehicle. The method, then:
Experiments were performed to evaluate the in vivo ability of the compounds of the disclosure to modulate systolic cardiac performance. Non-invasively echocardiography was used to assess cardiac indicators in isoflurane-anesthetized SD rats. A set of conscious rats were treated with either vehicle control (0 mg/kg PO; n=78) or a single dose of an test compound (10 mg/kg PO, n=2 to 6/compound) via oral gavage. Cardiac function/geometry were recorded at two separate time-points/days: once prior to dosing (i.e., at baseline, day −2) and at ˜2 hrs post-dosing (day 0).
In these experiments, heart rate (HR), echocardiography-derived indices of left-ventricular systolic performance, as well as dimensions/volumes were measured using a high-frequency transducer and parastemnal long-axis transthoracic views (Vevo3100, VisualSonic). LV fractional shortening (FS), an index of systolic function, was defined as the end-diastole normalized change in internal dimensions divided by the […] (LVid) of the left ventricle between end-systole (LVids) and end-diastole (LVidd) (i.e., FS=100·[LVidd−LVids]/LVidd). LV volumes were derived using the Teichholz formula (LVV=7·LVid^3/[2.4+LVid]). In addition, a systolic wall-thickening index (SWT) was also evaluated. SWT is defined as the relative ratio (end-diastole normalized) of left-ventricular (anterior and posterior) wall-thickness change during systole; i.e., SWT=I{[(anterior LV wall thickness in systole−anterior LV wall thickness in diastole)][…][(posterior LV wall thickness in systole−posterior LV wall thickness in diastole)]}/{2*diastolic thickness}. In all cases, blood samples were taken (via either tail-vein micro-sampling or cardiac-puncture) at the time of each echocardiographic examination in order to establish pharmacokinetic (PK)/pharmacodynamics (PD) relationships.

Where [1] appears, read: EDV (LV volume, Teichholz formula), read-out: EDV % vs. VEH.
The mark [2] stands for this setting: LV fractional shortening, read-out: FS % vs. VEH.
The mark [3] stands for this setting: heart rate, read-out: HR % vs. VEH.
Setting [4] is: systolic wall-thickening index, read-out: SWT % vs. VEH.

As to `N#Cc1cnc2c(c1)OCC2NC(=O)CN1Cc2c(ccc(F)c2F)NC1=O` (single isomer, unassigned) [Compound B65], the change in vivo at 10 mg/kg runs as follows: under setting [1], 22%; under setting [2], -61%; under setting [3], 22%; under setting [4], -53%.

As for `CC(NC(=O)CN1Cc2cc(F)ccc2NC1=O)c1ccc(C#N)cc1F` (single isomer, unassigned) [Compound B206], the change in vivo at 10 mg/kg was 29% under setting [1], -67% under setting [2], 7% under setting [3] and -57% under setting [4].

Turning to `C[C@@H](NC(=O)CN1Cc2c(ccc(F)c2F)NC1=O)c1ncc(C#N)cc1F` [Compound B141, (R)—N-(1-(5-cyano-3-fluoropyridin-2-yl)ethyl)-2-(5,6-difluoro-2-oxo-1,4-dihydroquinazolin-3(2H)-yl)acetamide], the change in vivo at 10 mg/kg by setting is: under setting [1], -3%; under setting [2], -15%; under setting [3], 13%; under setting [4], -19%.

In the case of `O=C(CN1Cc2cc(F)ccc2NC1=O)N[C@@H]1COc2cc(F)cc(F)c21` [Compound B145], the change in vivo at 10 mg/kg by setting is: under setting [1], 11%; under setting [2], -42%; under setting [3], 7%; under setting [4], -39%.

On to `O=C(CN1Cc2c(ccc(F)c2F)NC1=O)N[C@@H]1COc2cc(F)cc(F)c21` [Compound B147], for which the change in vivo at 10 mg/kg by setting is: under setting [1], 10%; under setting [2], -35%; under setting [3], 10%; under setting [4], -37%.

For `C[C@H](NC(=O)CN1Cc2c(ccc(F)c2F)NC1=O)c1ccc(C#N)cc1F` [Compound B189], the change in vivo at 10 mg/kg reads like this: under setting [1], 19%; under setting [2], -13%; under setting [3], -5%; under setting [4], -29%.

`C[C@H](NC(=O)CN1Cc2c(ccc(F)c2F)NC1=O)c1ncc(F)cc1F` [Compound B191]: the change in vivo at 10 mg/kg under setting [1] was found to be 9%, the change in vivo at 10 mg/kg under setting [2] was -59%, the change in vivo at 10 mg/kg under setting [3] was 17% and the change in vivo at 10 mg/kg under setting [4] is -59%.

Take `C[C@H](NC(=O)CN1Cc2cc(F)ccc2NC1=O)c1ncc(C#N)cc1F` [Compound B199]: the change in vivo at 10 mg/kg by setting is: under setting [1], 11%; under setting [2], -54%; under setting [3], 22%; under setting [4], -55%.

Consider `C[C@H](NC(=O)CN1Cc2cc(F)ccc2NC1=O)c1ccc(F)cc1F` [Compound B247, N-[(1S)-1-(2,4-Difluorophenyl)ethyl]-2-(6-fluoro-2-oxo-1,4-dihydroquinazolin-3-yl)acetamide], for which the change in vivo at 10 mg/kg is 7% under setting [1], -31% under setting [2], 7% under setting [3] and -35% under setting [4].

Take `O=C(CN1C(=O)Nc2cccnc2C12CC2)N[C@@H]1COc2cc(F)cc(F)c21` [Compound N33]: the change in vivo at 10 mg/kg under setting [1] was determined as 2%, the change in vivo at 10 mg/kg under setting [2] is -10%, the change in vivo at 10 mg/kg under setting [3] turned out to be 6% and the change in vivo at 10 mg/kg under setting [4] is -5%.
